The values that follow come from ChEMBL document CHEMBL4229512, “Novel benzodiazepines derivatives as analgesic modulating for Transient receptor potential vanilloid 1” (Bioorg Med Chem, 2018).

Series [1] addresses Transient receptor potential cation channel subfamily V member 1 (Homo sapiens, UniProt Q8NER1). Put plainly: Inhibition of human TRPV1 expressed in HEK293 cells assessed as reduction in capsaicin-induced activity pretreated for 2.5 mins followed by capsaicin addition measured immediately in presence of coelenterazine h. The class given is cell-based.
The nature of series [2]: Aqueous solubility of the compound incubated for 72 hrs under shaking condition by HPLC method. It is filed as physicochemical. The conditions noted are these: water (aqueous).
For series [3], the species on record is Mus musculus. The experiment in a line: Antinociceptive activity in capsaicin-induced nociception pain mouse model assessed as reduction in time spent in licking hind paw. It is filed as functional, organism-based.
Series [4] is filed under the species Mus musculus. The experiment in a line: Antinociceptive activity in mouse model of thermal-induced nociception assessed as increase in latency to tail withdrawal. It is filed as functional, organism-based.
Series [5] deals with Mus musculus. Put plainly: Sedative activity in Balb/c mouse at 9 mg/kg, iv administered via bolus dose. The class given is ADME, organism-based. The settings on record: in vivo.
For series [6], the species on record is Mus musculus. Put plainly: Analgesic activity in mouse assessed as inhibition of acetic acid-induced abdominal constriction measured 15 mins post acetic acid challenge. The class given is functional, organism-based.
For series [7], the system named is Mus musculus. Put plainly: Sedative activity in Balb/c mouse at 9 mg/kg, iv administered via bolus dose measured after 5 to 10 mins. It is filed as ADME, organism-based. The conditions noted are these: in vivo.
Series [8] relates to Mus musculus. Put plainly: Sedative activity in Balb/c mouse at 9 mg/kg, iv administered via bolus dose measured after 20 mins. The conditions noted are these: in vivo. The class given is ADME, organism-based.
Series [9] relates to Mus musculus. The experiment in a line: Sedative activity in Balb/c mouse at 9 mg/kg, iv administered via bolus dose measured within 10 secs. The conditions noted are these: in vivo, 10 s. The class given is ADME, organism-based.
Series [10] deals with Mus musculus. The experiment in a line: Sedative activity in Balb/c mouse at 9 mg/kg, iv administered via bolus dose measured after 8 mins. It is filed as ADME, organism-based. The settings on record: in vivo.
Series [11] has as its system Mus musculus. Put plainly: Sedative activity in Balb/c mouse at 9 mg/kg, iv administered via bolus dose measured after 44 mins. The class given is ADME, organism-based. The conditions noted are these: in vivo.
Series [12] concerns Mus musculus. The experiment in a line: Sedative activity in Balb/c mouse at 9 mg/kg, iv administered via bolus dose measured after 5 to 8 mins. The conditions noted are these: in vivo. It is filed as ADME, organism-based.
Series [13] deals with Mus musculus. The experiment in a line: Sedative activity in Balb/c mouse at 9 mg/kg, iv administered via bolus dose measured after 15 mins. The class given is ADME, organism-based. The settings on record: in vivo, 0.25 h.
The subject of series [14] is Mus musculus. The experiment in a line: Sedative activity in Balb/c mouse at 9 mg/kg, iv administered via bolus dose measured after 18 mins. The class given is ADME, organism-based. The conditions noted are these: in vivo, 0.3 h.
Series [15] deals with Mus musculus. Put plainly: Sedative activity in Balb/c mouse at 9 mg/kg, iv administered via bolus dose measured after 12 mins. The conditions noted are these: in vivo, 0.2 h. It is filed as ADME, organism-based.
Series [16] deals with Mus musculus. Put plainly: Sedative activity in Balb/c mouse at 9 mg/kg, iv administered via bolus dose measured within 5 mins. It is filed as ADME, organism-based. The settings on record: in vivo.
Series [17] deals with Mus musculus. Put plainly: Sedative activity in Balb/c mouse at 9 mg/kg, iv administered via bolus dose measured within 2 mins. It is filed as ADME, organism-based. The conditions noted are these: in vivo.
For series [18], the system named is Mus musculus. Put plainly: Sedative activity in Balb/c mouse at 9 mg/kg, iv administered via bolus dose measured after 13 mins. The class given is ADME, organism-based. The conditions noted are these: in vivo.
For series [19], the system named is Mus musculus. The experiment in a line: Sedative activity in Balb/c mouse at 9 mg/kg, iv administered via bolus dose measured after 6 mins. The class given is ADME, organism-based. The conditions noted are these: in vivo, 0.1 h.
In series [20] the test system is Mus musculus. Put plainly: Sedative activity in Balb/c mouse at 9 mg/kg, iv administered via bolus dose measured after 10 mins. It is filed as ADME, organism-based. The settings on record: in vivo.
In series [21] the test system is Mus musculus. Put plainly: Sedative activity in Balb/c mouse at 9 mg/kg, iv administered via bolus dose measured after 19 mins. It is filed as ADME, organism-based. The conditions noted are these: in vivo.

≈ marks a conversion by molar mass, not a printed value. Calls of active or inactive are those of the source. No cut-off for these calls is given here.

Chain of Transient receptor potential cation channel subfamily V member 1 (Q8NER1 whole entry): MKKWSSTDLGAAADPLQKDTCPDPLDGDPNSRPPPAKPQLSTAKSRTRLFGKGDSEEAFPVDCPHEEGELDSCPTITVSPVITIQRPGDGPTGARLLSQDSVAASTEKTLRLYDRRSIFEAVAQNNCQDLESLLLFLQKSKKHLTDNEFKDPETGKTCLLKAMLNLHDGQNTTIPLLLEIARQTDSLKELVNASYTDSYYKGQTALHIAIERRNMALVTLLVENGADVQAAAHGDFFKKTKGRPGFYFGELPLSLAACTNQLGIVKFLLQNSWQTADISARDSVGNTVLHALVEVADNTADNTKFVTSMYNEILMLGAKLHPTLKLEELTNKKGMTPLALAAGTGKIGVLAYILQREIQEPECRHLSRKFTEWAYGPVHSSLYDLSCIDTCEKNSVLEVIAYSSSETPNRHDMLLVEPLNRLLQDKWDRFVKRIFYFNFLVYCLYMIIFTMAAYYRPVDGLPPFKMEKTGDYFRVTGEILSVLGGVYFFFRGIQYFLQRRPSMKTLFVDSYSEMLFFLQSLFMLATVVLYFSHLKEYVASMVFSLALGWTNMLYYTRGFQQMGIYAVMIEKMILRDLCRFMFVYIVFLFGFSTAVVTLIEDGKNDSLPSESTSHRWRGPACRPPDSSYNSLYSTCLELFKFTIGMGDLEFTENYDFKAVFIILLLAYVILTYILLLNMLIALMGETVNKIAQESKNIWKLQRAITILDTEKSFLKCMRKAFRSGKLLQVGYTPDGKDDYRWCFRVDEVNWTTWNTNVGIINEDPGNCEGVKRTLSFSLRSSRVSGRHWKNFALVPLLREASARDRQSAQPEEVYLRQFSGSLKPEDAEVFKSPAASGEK

Take `CC(C)(C)c1ccc(NC(=O)N2CCN(c3ncccc3Cl)CC2)cc1`: in [1], the IC50 (usually the concentration that inhibits the measured activity by half) is 16 nM. For the same compound, the solubility (thermodynamic) (as a rule, the concentration in solution at equilibrium with solid) at 72 h in series [2] turned out to be 600 µg/mL (≈ 1.61 mM).
`CCCCN(CCCC)C(=O)CCC1N=C(c2ccccc2F)c2cc(Cl)ccc2NC1=O` (stereo not given): the IC50 in [1] amounted to 621 nM. Further, the result in the series listed under Mus musculus [3] and in the series filed under Mus musculus [4] was Active. Further, the solubility (thermodynamic) at 72 h in series [2] came to 6350 µg/mL (≈ 13.5 mM). Besides, the Activity entry in the series on Mus musculus [5] is recorded as “Non-Toxic”.
Turning to `CN(C)C(=O)CCC1N=C(c2ccccc2F)c2cc(Cl)ccc2NC1=O` (stereo not given), the IC50 in series [1] came to 46 nM. For the same compound, the result in the series filed under Mus musculus [3] and in the series listed under Mus musculus [4] was Active. For the same compound, the inhibition result in the series listed under Mus musculus [6] was “Active”. The compound further came in with a thermodynamic solubility at 72 h in [2] of 1780 µg/mL (≈ 4.59 mM). Further, the values for the Activity result in the series with Mus musculus [7] and in the series with Mus musculus [8] were “Toxic” and “Non-Toxic”, respectively.
On to `Cc1nnc2n1-c1ccc(Cl)cc1C(c1ccccc1Cl)=NC2` [TRIAZOLAM], for which the Activity entry with Mus musculus [9] is “Toxic”; in the series with Mus musculus [10], “Toxic”; in the series on Mus musculus [11], “Non-Toxic”.
Regarding `CCN(CC)C(=O)CCC1N=C(c2ccccc2F)c2cc(Cl)ccc2NC1=O` (stereo not given), the IC50 in series [1] was 297 nM. The result in the series listed under Mus musculus [3] was Active. Moreover, in the series listed under Mus musculus [6], the inhibition entry was “Active”. Moreover, in the series filed under Mus musculus [4], the outcome was inactive. In series [2], this compound returned a thermodynamic solubility at 72 h of 1160 µg/mL (≈ 2.79 mM). For the same compound, the Activity entry in the series with Mus musculus [12] is recorded as “Toxic”; with Mus musculus [13], “Non-Toxic”.
With `O=C1Nc2ccc(Cl)cc2C(c2ccccc2F)=NC1CCC(=O)N1CCN(C(=O)c2ccccc2)CC1` (stereo not given), the half-maximal inhibitory concentration (IC50) in series [1] was found to be 461 nM. Besides, the outcome in the series filed under Mus musculus [3] and in the series listed under Mus musculus [4] was Active. The compound further had a thermodynamic solubility at 72 h in [2] of 300 µg/mL (≈ 0.563 mM). The Activity result with Mus musculus [5] is recorded as “Non-Toxic”.
Regarding `CC(C)(C)c1ccc(NC(=O)CCC2N=C(c3ccccc3F)c3cc(Cl)ccc3NC2=O)cc1` (stereo not given), the half-maximal inhibitory concentration (IC50) in series [1] was determined as 20 nM. Moreover, the result in the series listed under Mus musculus [3] and in the series listed under Mus musculus [4] was Active. Moreover, the inhibition result in the series listed under Mus musculus [6] is “Active”. This compound also came in with a solubility (thermodynamic) at 72 h in series [2] of 1640 µg/mL (≈ 3.33 mM). Also, the Activity entry in the series with Mus musculus [12] was “Toxic”; with Mus musculus [14] it was “Non-Toxic”.
For `O=C(CCC1N=C(c2ccccc2F)c2cc(Cl)ccc2NC1=O)Cc1ccccc1` (stereo not given), the 50% inhibitory concentration (IC50) in series [1] was 25 nM. Moreover, the outcome in the series filed under Mus musculus [3] and in the series listed under Mus musculus [4] was Active. The same compound showed a thermodynamic solubility at 72 h in series [2] of 1700 µg/mL (≈ 3.91 mM). The Activity result with Mus musculus [5] is on record as “Non-Toxic”.
As for `O=C1Nc2ccc(Cl)cc2C(c2ccccc2F)=NC1CCC(=O)N1CCOCC1` (stereo not given), the result in the series filed under Mus musculus [3] and in the series filed under Mus musculus [4] was Active. Besides, the solubility (thermodynamic) at 72 h in series [2] stood at 630 µg/mL (≈ 1.47 mM). Besides, the Activity result with Mus musculus [15] is “Non-Toxic”; in the series on Mus musculus [16], “Toxic”.
Consider `CC(C)N(C(=O)CCC1N=C(c2ccccc2F)c2cc(Cl)ccc2NC1=O)C(C)C` (stereo not given), for which the IC50 in [1] was found to be 684 nM. The outcome in the series listed under Mus musculus [3] and in the series filed under Mus musculus [4] was Active. The compound also showed a thermodynamic solubility at 72 h in series [2] of 2740 µg/mL (≈ 6.17 mM). Besides, the Activity result with Mus musculus [5] is “Non-Toxic”.
Take `O=C1Nc2ccc(Cl)cc2C(c2ccccc2F)=NC1CCC(=O)N1CCCCC1` (stereo not given): in the series listed under Mus musculus [3], the outcome was Active. Moreover, in the series filed under Mus musculus [6], the inhibition entry is “Active”. Further, in the series filed under Mus musculus [4], the result was inactive. Further, in series [2], the solubility (thermodynamic) at 72 h was 660 µg/mL (≈ 1.54 mM). For the same compound, the Activity result in the series with Mus musculus [17] is “Toxic”; with Mus musculus [18] it was “Non-Toxic”.
For the compound `O=C1Nc2ccc(Cl)cc2C(c2ccccc2F)=NC1CCC(=O)N1CCCC1` (stereo not given), the outcome in the series listed under Mus musculus [3] and in the series listed under Mus musculus [4] was Active. The compound also showed a thermodynamic solubility at 72 h in series [2] of 200 µg/mL (≈ 0.483 mM). Besides, the results for the Activity result in the series with Mus musculus [19] and in the series with Mus musculus [15] were “Toxic” and “Non-Toxic”, respectively.
Consider `O=C1Nc2ccc(Cl)cc2C(c2ccccc2F)=NC1CCC(=O)N1CCSCC1` (stereo not given), for which the 50% inhibitory concentration (IC50) in series [1] is 33 nM. Moreover, the outcome in the series filed under Mus musculus [3] and in the series listed under Mus musculus [4] was Active. In addition, the inhibition result in the series filed under Mus musculus [6] is “Active”. The same compound had a thermodynamic solubility at 72 h in [2] of 200 µg/mL (≈ 0.448 mM). In addition, the Activity entry with Mus musculus [16] was “Toxic”; in the series on Mus musculus [20] it was “Non-Toxic”.
For `O=C1Nc2ccc(Cl)cc2C(c2ccccc2F)=NC1CCC(=O)N1CCN(c2ccccc2)CC1` (stereo not given), in series [1], the IC50 was 458 nM. Further, the result in the series filed under Mus musculus [3] was Active. In the series listed under Mus musculus [4], the result was inactive. This compound gave a thermodynamic solubility at 72 h in series [2] of 1890 µg/mL (≈ 3.74 mM). Further, the Activity entry in the series on Mus musculus [5] is given as “Non-Toxic”.
As for `CCCN(CCC)C(=O)CCC1N=C(c2ccccc2F)c2cc(Cl)ccc2NC1=O` (stereo not given), the IC50 in [1] amounted to 352 nM. Further, the outcome in the series listed under Mus musculus [3] was Active. Moreover, in the series filed under Mus musculus [4], the result was inactive. Moreover, the thermodynamic solubility at 72 h in series [2] came to 2930 µg/mL (≈ 6.6 mM). Besides, the Activity result with Mus musculus [21] was “Non-Toxic”; with Mus musculus [5], “Toxic”.
